Laboratory results as given in paper PMC13316043, “Structural basis of NSD2 degradation via targeted recruitment of SCF-FBXO22” (Nature Communications, 2026).

Assays:
[1] = target: T1, *NSD2 PWWP1 ubiquitination by SCF^FBXO22 (Homo sapiens, UniProt O96028+Q8NEZ5); assay: Ubiquitination assay using purified components; type: biochemical; conditions: for SCF^FBXO22-dependent ubiquitination of *NSD2 PWWP1: compound at 0.5 µM, fluorescent SDS-PAGE; for hook effect upon titration in ubiquitination assay: compound titration
T1 construct: fluorescently labeled NSD2-PWWP1 (*NSD2-PWWP1); the FIST domain of FBXO22 rather than full-length FBXO22 that is used in the ubiquitination; 6xHis (N, cleaved yes); GST (cleaved yes); made in house; host or cells: SKP1-FBXO22: Trichoplusia ni insect cells; NSD2 PWWP1 and NEDD8: E. coli BL21(DE3)-CodonPlus RIL
Protocol: Ubiquitination assays were performed by mixing 2 separate solutions. First, SKP1-FBXO22, fluorescently labeled NSD2-PWWP1 (*NSD2-PWWP1), and compounds, unless otherwise indicated, were pre-incubated for 15 min on ice. Second, UBA1, UBE2R2, UBE2D2 or UBE2L3 and ARIH1, NEDD8 ~ CUL1-RBX1, MgATP, and reaction buffer (20 mM HEPES pH 8, 200 mM NaCl, 0.5 mg/mL bovine serum albumin (BSA)) were combined on ice to generate a master mix. A standard volume of master mix was added to each reaction tube, and Ub was added to initiate the ubiquitination reaction containing 100µM Ub, 1µM SKP1-FBXO22, 0.5µM *NSD2 PWWP1, 0.5µM compound, 0.1µM UBA1, 1µM UBE2R2, 1µM UBE2D2 or 1µM UBE2L3, and 1µM ARIH1, 1µM NEDD8~CUL1-RBX1, and 5mM MgATP in reaction buffer. Ubiquitination assays comparing *NSD2 PWWP1 mutants were performed similarly, except that SKP1-FBXO22, *NSD2 PWWP1 mutants, and compounds were not incubated separately prior to the start of the reaction. The reactions proceeded at room temperature for 15 min until they were quenched by adding SDS Loading Buffer. The ubiquitinated *NSD2 PWWP1 was visualized by subjecting the reactions to SDS-PAGE and imaging using the Amersham Typhoon.

FBXO22 FIST domain = assay: Differential scanning fluorimetry (DSF); type: binding, human; conditions: vs DMSO
Protocol: A total of 9.5 µL of the master mix containing FBXO22 FIST WT or variants, SYPRO Orange Dye (Invitrogen), and DSF buffer (20 mM Tris 7.5, 150 mM NaCl, and 1 mM TCEP) were added to a 384-well qPCR plate (Genesee Scientific). 0.5 µL of the compound in DMSO was added to achieve a final concentration of 15 µM of the protein and 15× SYPRO Orange. The DSF assay plate was covered and incubated on an orbital shaker at room temperature for 30 min. The DSF assay was performed using the ViiA 7 Real-Time PCR System (Applied Biosystems). The plate was heated from 25°C to 95°C with a rate of 0.033°C/second. The raw fluorescence value was analyzed using the Protein Thermal Shift Software (Applied Biosystems, v1.4) to obtain the Tm. The graph was generated using GraphPad Prism (v 10.4.1).

[2] = target: T2, NSD2 (long and short forms) (Homo sapiens, UniProt O96028); assay: Western blot of NSD2 in HEK293T cells; type: cell-based; conditions: 10 µM, 6 hrs, vs DMSO
T2 sequence (O96028 211-350 limits assumed): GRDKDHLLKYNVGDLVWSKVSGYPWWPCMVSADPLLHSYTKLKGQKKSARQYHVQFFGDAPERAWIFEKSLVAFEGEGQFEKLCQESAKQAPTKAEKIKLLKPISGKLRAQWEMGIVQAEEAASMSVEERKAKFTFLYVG
Protocol: HEK293T and U2OS were obtained from ATCC and cultured in high-glucose-containing Dulbecco’s Modified Eagle’s Medium (DMEM; Gibco; cat. #11995) supplemented with 10% fetal bovine serum (VWR) and 1% penicillin/streptomycin (Gibco). Cells were treated with either UNC10415667, UNC12149, UNC12567, hemin (Sigma; cat. #H9039), or DMSO control for the indicated times and analyzed by western blot using standard procedures. Briefly, cells were lysed on ice for 15 min in NETN lysis buffer (20 mM Tris pH 8.0, 100 mM NaCl, 0.5 mM EDTA, 0.5% NP40) supplemented with 10 µg/mL aprotinin, 10 µg/mL leupeptin, 10 µg/mL pepstatin A, 1 mM sodium orthovanadate, 1 mM sodium fluoride, and 1 mM AEBSF (4-[two aminoethyl] benzenesulfonyl fluoride). Cell lysates were centrifuged at 20,000×g in a benchtop microcentrifuge at 4 °C for 10 min. Protein concentration was determined by Bradford assay (Bio-Rad; cat. #5000006). Protein concentration was normalized using Laemmli buffer. Samples were heated for 5 min at 95°C in a dry water-bath. Samples were separated on TGX stain free gels (Bio-Rad) transferred to nitrocellulose membrane and blocked in 5% non-fat dry milk (Biorad; cat. #1706404) diluted in 1x TBS-T (137 mM NaCl, 2.7 mM KCl, 25 mM Tris pH 7.6, 1% Tween-20). Primary antibody incubations (Anti-NSD2 (Abcam; Cat# ab75359; Lot# 1093214-1; 1:1000 dilution), Anti-BACH1 (Fortis Life Sciences; Cat# A303-805A; Lot# 1; 1:1000 dilution), and Anti-GAPDH (Santa Cruz Biotechnology; Cat# sc-47724; Lot# C1023; 1:1000 dilution)) were performed overnight at 4 °C. Secondary antibodies (Peroxidase AffiniPure Goat Anti-Rabbit IgG (H + L) (Jackson Immuno; Cat# 111-035-003; 1:5000 dilution) and Peroxidase AffiniPure Goat Anti-Mouse IgG (H + L) (Jackson Immuno; Cat# 115-035-003; 1:5000 dilution)) were incubated for 1 h at room temperature. Blots were developed by chemiluminescence using Pierce ECL (Thermo Fisher Scientific; cat. #32106).

T1 sequence (Q8NEZ5 whole entry, one chain of several, the tested form may be a part): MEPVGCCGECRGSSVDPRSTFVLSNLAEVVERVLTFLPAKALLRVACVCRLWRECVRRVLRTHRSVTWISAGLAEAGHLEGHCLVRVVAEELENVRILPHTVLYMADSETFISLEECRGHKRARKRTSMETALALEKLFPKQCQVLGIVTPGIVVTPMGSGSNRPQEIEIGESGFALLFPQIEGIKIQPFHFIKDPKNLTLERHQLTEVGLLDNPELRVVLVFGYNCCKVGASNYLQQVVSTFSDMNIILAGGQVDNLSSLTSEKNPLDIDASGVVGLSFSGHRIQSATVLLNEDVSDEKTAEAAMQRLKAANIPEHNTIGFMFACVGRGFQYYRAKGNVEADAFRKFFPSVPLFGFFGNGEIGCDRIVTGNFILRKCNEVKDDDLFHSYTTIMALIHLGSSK

Row | SMILES | SCF^FBXO22-dependent ubiquitination of *NSD2 PWWP1 [1] | hook effect upon titration in ubiquitination assay [1] | change in melting temperature (Tm) of WT FBXO22 FIST (FBXO22 FIST domain) | NSD2 levels by immunoblot [2] | change in melting temperature (Tm) of FBXO22 FIST C326A (FBXO22 FIST domain; C326A variant)
1 | O=C1COc2cc(C(=O)N(Cc3ccc(C(=O)Nc4ccc5c(c4)CCN(C(=O)CCCCC(O)S(=O)(=O)O)C5)cc3)C3CC3)ccc2N1 (stereo not shown) [UNC10088] | promotes ubiquitination | observed hook effect | stabilize WT FBXO22 FIST | degradation of NSD2 | 
2 | Cc1cc(C=O)ccc1C(=O)N1CCc2cc(NC(=O)c3ccc(CN(C(=O)c4ccc5c(c4)OCC(=O)N5)C4CC4)cc3)ccc2C1 [UNC12149] | significant in vitro NSD2 ubiquitination |  |  |  | 
3 | O=Cc1ccc(C(=O)N2CCc3cc(NC(=O)c4ccc(CN(C(=O)c5ccc6c(c5)OCC(=O)N6)C5CC5)cc4)ccc3C2)cc1 [UNC10415667] | to the same extent as UNC10088 | characteristic hook effect | significant increase | completely degraded | negligible shift
